Experimental data as given in ChEMBL document CHEMBL1201861, “Genomics of Drug Sensitity in Cancer screening data, Wellcome Trust Sanger Institute”.

How the values were obtained:
Assay in all cases: cells
DMS-273 = type: functional, cell-based, Homo sapiens; conditions: Homo sapiens, DMS-273
Description: SANGER: Inhibition of human DMS-273 cell growth in a cell viability assay.

SF-539 = type: functional, cell-based, Homo sapiens; conditions: Homo sapiens, SF-539
Description: SANGER: Inhibition of human SF539 cell growth in a cell viability assay.

HCC1419 = type: functional, cell-based, Homo sapiens; conditions: Homo sapiens, HCC1419
Description: SANGER: Inhibition of human HCC1419 cell growth in a cell viability assay.

HT1197 = type: functional, cell-based, Homo sapiens, HT-1197; conditions: Homo sapiens, HT1197
Description: SANGER: Inhibition of human HT-1197 cell growth in a cell viability assay.

MZ2-MEL = type: functional, cell-based, Homo sapiens; conditions: Homo sapiens, MZ2-MEL
Description: SANGER: Inhibition of human MZ2-MEL cell growth in a cell viability assay.

ESS-1 = type: functional, cell-based, Homo sapiens; conditions: Homo sapiens, ESS-1
Description: SANGER: Inhibition of human ESS-1 cell growth in a cell viability assay.

SW872 = type: functional, cell-based, Homo sapiens; conditions: Homo sapiens, SW872
Description: SANGER: Inhibition of human SW872 cell growth in a cell viability assay.

OVCAR-5 = type: functional, cell-based, Homo sapiens; conditions: Homo sapiens, OVCAR-5
Description: SANGER: Inhibition of human OVCAR-5 cell growth in a cell viability assay.

NCI-H1793 = type: functional, cell-based, Homo sapiens; conditions: Homo sapiens, NCI-H1793
Description: SANGER: Inhibition of human NCI-H1793 cell growth in a cell viability assay.

BT-474 = type: functional, cell-based, Homo sapiens; conditions: Homo sapiens, BT-474
Description: SANGER: Inhibition of human BT-474 cell growth in a cell viability assay.

ES6 = type: functional, cell-based, Homo sapiens; conditions: Homo sapiens, ES6
Description: SANGER: Inhibition of human ES6 cell growth in a cell viability assay.

LB771-HNC = type: functional, cell-based, Homo sapiens; conditions: Homo sapiens, LB771-HNC
Description: SANGER: Inhibition of human LB771-HNC cell growth in a cell viability assay.

NCI-H69 = type: functional, cell-based; conditions: Homo sapiens
Description: SANGER: Inhibition of human NCI-H69 cell growth in a cell viability assay.

MPP-89 = type: functional, cell-based, Homo sapiens; conditions: Homo sapiens, MPP-89
Description: SANGER: Inhibition of human MPP-89 cell growth in a cell viability assay.

HOP-92 = type: functional, cell-based, Homo sapiens; conditions: Homo sapiens, HOP-92
Description: SANGER: Inhibition of human HOP-92 cell growth in a cell viability assay.

647-V = type: functional, cell-based, Homo sapiens; conditions: Homo sapiens, 647-V
Description: SANGER: Inhibition of human 647-V cell growth in a cell viability assay.

KYSE-70 cell line = type: functional, cell-based, Homo sapiens; conditions: Homo sapiens, KYSE-70
Description: SANGER: Inhibition of human KYSE-70 cell growth in a cell viability assay.

NB6 = type: functional, cell-based, Homo sapiens; conditions: Homo sapiens, NB6
Description: SANGER: Inhibition of human NB6 cell growth in a cell viability assay.

DB = type: functional, cell-based; conditions: Homo sapiens
Description: SANGER: Inhibition of human DB cell growth in a cell viability assay.

SK-MEL-28 = type: functional, cell-based; conditions: Homo sapiens
Description: SANGER: Inhibition of human SK-MEL-28 cell growth in a cell viability assay.

H4 = type: functional, cell-based; conditions: Homo sapiens
Description: SANGER: Inhibition of human H4 cell growth in a cell viability assay.

A253 cell line = type: functional, cell-based, Homo sapiens; conditions: Homo sapiens, A253
Description: SANGER: Inhibition of human A253 cell growth in a cell viability assay.

MHH-NB-11 = type: functional, cell-based, Homo sapiens; conditions: Homo sapiens, MHH-NB-11
Description: SANGER: Inhibition of human MHH-NB-11 cell growth in a cell viability assay.

UACC-893 = type: functional, cell-based, Homo sapiens; conditions: Homo sapiens, UACC-893
Description: SANGER: Inhibition of human UACC-893 cell growth in a cell viability assay.

SW837 = type: functional, cell-based, Homo sapiens; conditions: Homo sapiens, SW837
Description: SANGER: Inhibition of human SW837 cell growth in a cell viability assay.

HPAF-II = type: functional, cell-based, Homo sapiens; conditions: Homo sapiens, HPAF-II
Description: SANGER: Inhibition of human HPAF-II cell growth in a cell viability assay.

NCI-H1581 = type: functional, cell-based, Homo sapiens; conditions: Homo sapiens, NCI-H1581
Description: SANGER: Inhibition of human NCI-H1581 cell growth in a cell viability assay.

VM-CUB-1 = type: functional, cell-based; conditions: Homo sapiens
Description: SANGER: Inhibition of human VM-CUB-1 cell growth in a cell viability assay.

MeWo = type: functional, cell-based, Homo sapiens; conditions: Homo sapiens, MeWo
Description: SANGER: Inhibition of human Mewo cell growth in a cell viability assay.

CP66-MEL = type: functional, cell-based, Homo sapiens; conditions: Homo sapiens, CP66-MEL
Description: SANGER: Inhibition of human CP66-MEL cell growth in a cell viability assay.

TGW = type: functional, cell-based; conditions: Homo sapiens
Description: SANGER: Inhibition of human TGW cell growth in a cell viability assay.

KNS-81-FD = type: functional, cell-based, Homo sapiens; conditions: Homo sapiens, KNS-81-FD
Description: SANGER: Inhibition of human KNS-81-FD cell growth in a cell viability assay.

5637 = type: functional, cell-based, Homo sapiens; conditions: Homo sapiens
Description: SANGER: Inhibition of human 5637 cell growth in a cell viability assay.

HT-29 = type: functional, cell-based, Homo sapiens; conditions: Homo sapiens, HT-29
Description: SANGER: Inhibition of human HT-29 cell growth in a cell viability assay.

SK-MES-1 = type: functional, cell-based, Homo sapiens; conditions: Homo sapiens, SK-MES-1
Description: SANGER: Inhibition of human SK-MES-1 cell growth in a cell viability assay.

PA-1 = type: functional, cell-based, Homo sapiens; conditions: Homo sapiens, PA-1
Description: SANGER: Inhibition of human PA-1 cell growth in a cell viability assay.

A3-KAW = type: functional, cell-based; conditions: Homo sapiens
Description: SANGER: Inhibition of human A3-KAW cell growth in a cell viability assay.

IST-MES1 = type: functional, cell-based, Homo sapiens; conditions: Homo sapiens, IST-MES1
Description: SANGER: Inhibition of human IST-MES1 cell growth in a cell viability assay.

P12-Ichikawa = type: functional, cell-based; conditions: Homo sapiens
OCUB-M = type: functional, cell-based, Homo sapiens; conditions: Homo sapiens, OCUB-M
Description: SANGER: Inhibition of human OCUB-M cell growth in a cell viability assay.

LB1047-RCC = type: functional, cell-based, Homo sapiens; conditions: Homo sapiens, LB1047-RCC
Description: SANGER: Inhibition of human LB1047-RCC cell growth in a cell viability assay.

D-502MG = type: functional, cell-based, Homo sapiens; conditions: Homo sapiens, D-502MG
Description: SANGER: Inhibition of human D-502MG cell growth in a cell viability assay.

SK-MEL-2 = type: functional, cell-based, Homo sapiens; conditions: Homo sapiens, SK-MEL-2
Description: SANGER: Inhibition of human SK-MEL-2 cell growth in a cell viability assay.

CAL-54 = type: functional, cell-based, Homo sapiens; conditions: Homo sapiens, CAL-54
Description: SANGER: Inhibition of human CAL-54 cell growth in a cell viability assay.

OVCAR-4 = type: functional, cell-based, Homo sapiens; conditions: Homo sapiens, OVCAR-4
Description: SANGER: Inhibition of human OVCAR-4 cell growth in a cell viability assay.

NOMO-1 = type: functional, cell-based; conditions: Homo sapiens
Description: SANGER: Inhibition of human NOMO-1 cell growth in a cell viability assay.

MOLT-16 = type: functional, cell-based; conditions: Homo sapiens
Description: SANGER: Inhibition of human MOLT-16 cell growth in a cell viability assay.

NCI-H23 = type: functional, cell-based, Homo sapiens; conditions: Homo sapiens, NCI-H23
Description: SANGER: Inhibition of human NCI-H23 cell growth in a cell viability assay.

MN-60 = type: functional, cell-based; conditions: Homo sapiens
Description: SANGER: Inhibition of human MN-60 cell growth in a cell viability assay.

TE-1 = type: functional, cell-based, Homo sapiens; conditions: Homo sapiens, TE-1
Description: SANGER: Inhibition of human TE-1 cell growth in a cell viability assay.

MIA PaCa-2 = type: functional, cell-based, Homo sapiens; conditions: Homo sapiens, MIA PaCa-2
Description: SANGER: Inhibition of human MIA-PaCa-2 cell growth in a cell viability assay.

## Cn1cncc1[C@@](N)(c1ccc(Cl)cc1)c1ccc2c(c1)c(-c1cccc(Cl)c1)cc(=O)n2C [TIPIFARNIB]
DMS-273
  IC50: 720 nM
SF-539
  IC50: > 16000 nM
HCC1419
  IC50: 4650 nM
HT1197
  IC50: 11700 nM
MZ2-MEL
  IC50: 1900 nM
ESS-1
  IC50: > 16000 nM
SW872
  IC50: 1450 nM
OVCAR-5
  IC50: > 16000 nM
NCI-H1793
  IC50: > 16000 nM
BT-474
  IC50: > 16000 nM
ES6
  IC50: 539 nM
LB771-HNC
  IC50: 1130 nM
NCI-H69
  IC50: > 16000 nM
MPP-89
  IC50: > 16000 nM
HOP-92
  IC50: 9130 nM
647-V
  IC50: 2300 nM
KYSE-70 cell line
  IC50: 1410 nM
NB6
  IC50: > 16000 nM
DB
  IC50: 10700 nM
SK-MEL-28
  IC50: > 16000 nM
H4
  IC50: 1220 nM
A253 cell line
  IC50: 10500 nM
MHH-NB-11
  IC50: > 16000 nM
UACC-893
  IC50: > 16000 nM
SW837
  IC50: 9890 nM
HPAF-II
  IC50: 7570 nM
NCI-H1581
  IC50: > 16000 nM
VM-CUB-1
  IC50: 5760 nM
MeWo
  IC50: 2040 nM
CP66-MEL
  IC50: 9820 nM
TGW
  IC50: > 16000 nM
KNS-81-FD
  IC50: 11200 nM
5637
  IC50: 1030 nM
HT-29
  IC50: 547 nM
SK-MES-1
  IC50: 1910 nM
PA-1
  IC50: 1340 nM
A3-KAW
  IC50: 901 nM
IST-MES1
  IC50: 14600 nM
P12-Ichikawa
  IC50: 10400 nM
OCUB-M
  IC50: 472 nM
LB1047-RCC
  IC50: > 16000 nM
D-502MG
  IC50: > 16000 nM
SK-MEL-2
  IC50: 484 nM
CAL-54
  IC50: 11900 nM
OVCAR-4
  IC50: 2210 nM
NOMO-1
  IC50: > 16000 nM
MOLT-16
  IC50: 258 nM
NCI-H23
  IC50: > 16000 nM
MN-60
  IC50: > 16000 nM
TE-1
  IC50: 2610 nM
MIA PaCa-2
  IC50: 320 nM

## COc1cc([C@@H]2c3cc4c(cc3[C@@H](O[C@@H]3O[C@@H]5CO[C@@H](C)O[C@H]5[C@H](O)[C@H]3O)[C@H]3COC(=O)[C@H]23)OCO4)cc(OC)c1O [ETOPOSIDE]
DMS-273
  IC50: 573 nM
SF-539
  IC50: 1610 nM
HCC1419
  IC50: > 16000 nM
HT1197
  IC50: > 16000 nM
MZ2-MEL
  IC50: 2180 nM
ESS-1
  IC50: 531 nM
SW872
  IC50: 640 nM
OVCAR-5
  IC50: 1540 nM
NCI-H1793
  IC50: 5310 nM
BT-474
  IC50: > 16000 nM
ES6
  IC50: > 16000 nM
LB771-HNC
  IC50: > 16000 nM
NCI-H69
  IC50: 8180 nM
MPP-89
  IC50: > 16000 nM
HOP-92
  IC50: 5020 nM
647-V
  IC50: 487 nM
KYSE-70 cell line
  IC50: > 16000 nM
NB6
  IC50: > 16000 nM
DB
  IC50: 6530 nM
SK-MEL-28
  IC50: > 16000 nM
H4
  IC50: 297 nM
A253 cell line
  IC50: 18.4 nM
MHH-NB-11
  IC50: 524 nM
UACC-893
  IC50: > 16000 nM
SW837
  IC50: > 16000 nM
HPAF-II
  IC50: > 16000 nM
NCI-H1581
  IC50: > 16000 nM
VM-CUB-1
  IC50: 2580 nM
MeWo
  IC50: 6790 nM
CP66-MEL
  IC50: 6250 nM
TGW
  IC50: > 16000 nM
KNS-81-FD
  IC50: > 16000 nM
5637
  IC50: 867 nM
HT-29
  IC50: 1980 nM
SK-MES-1
  IC50: 808 nM
PA-1
  IC50: 132 nM
A3-KAW
  IC50: 358 nM
IST-MES1
  IC50: > 16000 nM
P12-Ichikawa
  IC50: 317 nM
OCUB-M
  IC50: 44.6 nM
LB1047-RCC
  IC50: 2140 nM
D-502MG
  IC50: > 16000 nM
SK-MEL-2
  IC50: > 16000 nM
CAL-54
  IC50: 8920 nM
OVCAR-4
  IC50: > 16000 nM
NOMO-1
  IC50: 2190 nM
MOLT-16
  IC50: 12500 nM
NCI-H23
  IC50: 13200 nM
MN-60
  IC50: > 16000 nM
TE-1
  IC50: > 16000 nM
MIA PaCa-2
  IC50: 2660 nM

## C[C@]1(O)C[C@@H](c2nc(-c3ccc4ccc(-c5ccccc5)nc4c3)c3c(N)nccn32)C1 [LINSITINIB]
DMS-273
  IC50: > 2560 nM
SF-539
  IC50: > 2560 nM
HCC1419
  IC50: > 2560 nM
HT1197
  IC50: > 2560 nM
MZ2-MEL
  IC50: > 2560 nM
ESS-1
  IC50: > 2560 nM
SW872
  IC50: > 2560 nM
OVCAR-5
  IC50: > 2560 nM
NCI-H1793
  IC50: > 2560 nM
BT-474
  IC50: > 2560 nM
ES6
  IC50: 911 nM
LB771-HNC
  IC50: 259 nM
NCI-H69
  IC50: > 2560 nM
MPP-89
  IC50: > 2560 nM
HOP-92
  IC50: > 2560 nM
647-V
  IC50: > 2560 nM
KYSE-70 cell line
  IC50: > 2560 nM
NB6
  IC50: > 2560 nM
DB
  IC50: > 2560 nM
SK-MEL-28
  IC50: > 2560 nM
H4
  IC50: > 2560 nM
A253 cell line
  IC50: > 2560 nM
MHH-NB-11
  IC50: > 2560 nM
UACC-893
  IC50: > 2560 nM
SW837
  IC50: > 2560 nM
HPAF-II
  IC50: > 2560 nM
NCI-H1581
  IC50: > 2560 nM
VM-CUB-1
  IC50: > 2560 nM
MeWo
  IC50: > 2560 nM
CP66-MEL
  IC50: 2290 nM
TGW
  IC50: > 2560 nM
KNS-81-FD
  IC50: > 2560 nM
5637
  IC50: > 2560 nM
HT-29
  IC50: 242 nM
SK-MES-1
  IC50: > 2560 nM
PA-1
  IC50: > 2560 nM
A3-KAW
  IC50: > 2560 nM
IST-MES1
  IC50: > 2560 nM
P12-Ichikawa
  IC50: > 2560 nM
OCUB-M
  IC50: > 2560 nM
LB1047-RCC
  IC50: > 2560 nM
D-502MG
  IC50: > 2560 nM
SK-MEL-2
  IC50: > 2560 nM
CAL-54
  IC50: > 2560 nM
OVCAR-4
  IC50: > 2560 nM
NOMO-1
  IC50: > 2560 nM
MOLT-16
  IC50: > 2560 nM
NCI-H23
  IC50: > 2560 nM
MN-60
  IC50: > 2560 nM
TE-1
  IC50: 1710 nM
MIA PaCa-2
  IC50: > 2560 nM
